The values below come from patent publication US6384220B2, “Para-aryl or heterocyclic substituted phenyl glucokinase activators” (Hoffmann-La Roche Inc., priority 2000, dated 2002).

For orientation: melting point means the temperature, or range, at which the solid turns liquid.

For `O=C(Nc1nccs1)C(CC1CCCC1)c1ccc(-c2ccccc2)cc1` (centres unmarked) [Example 1, 2-Biphenyl-4-yl-3-cyclopentyl-N-thiazol-2-yl-propionamide], the melting point lay within 194 to 195 °C.
With `COC(=O)c1csc(NC(=O)C(CC2CCCC2)c2ccc(-c3ccccc3)cc2)n1` (centres unmarked) [Example 2, 2-(2-Biphenyl-4-yl-3-cyclopentyl-propionylamino)-thiazole-4-carboxylic acid methyl ester] the figure was 98 to 101 °C; with `O=C(Nc1nc(CO)cs1)C(CC1CCCC1)c1ccc(-c2ccccc2)cc1` (centres unmarked) [Example 3, 2-Biphenyl-4-yl-3-cyclopentyl-N-(4-hydroxymethyl-thiazol-2-yl)-propionamide], 102 to 104 °C; with `O=C(Nc1nccs1)[C@H](CC1CCCC1)c1ccc(-c2ccccc2)cc1` [Example 4, (2R)-2-Biphenyl-4-yl-3-cyclopentyl-N-thiazol-2-yl-propionamide], 132 to 134 °C.
Molecule `O=C(Nc1nccs1)C(CC1CCCC1)c1ccc(-c2cccc3ccccc23)cc1` (centres unmarked) [Example 5, 3-Cyclopentyl-2-(4-naphthalen-1-yl-phenyl)-N-thiazol-2-yl-propionamide] yielded a melting point of 202 to 204 °C.
On to `O=C(Nc1nc(CCO)cs1)C(CC1CCCC1)c1ccc(-c2cccc3ccccc23)cc1` (centres unmarked) [Example 6, 3-Cyclopentyl-N-[4-(2-hydroxyethyl)-thiazol-2-yl]-2-(4-naphthalen-1-yl-phenyl)-propionamide], for which the melting point lay within 84 to 87 °C.
The same measure for `O=C(Nc1nccs1)C(CC1CCCC1)c1ccc(-c2cccs2)cc1` (centres unmarked) [Example 7, 3-Cyclopentyl-N-thiazol-2-yl-2-(4-thiophen-2-yl-phenyl)-propionamide]: 194 °C (dec.); for `O=C(Nc1nccs1)C(CC1CCCC1)c1ccc(-c2cccnc2)cc1` (centres unmarked) [Example 8, 3-Cyclopentyl-2-(4-pyridin-3-yl-phenyl)-N-thiazol-2-yl-propionamide]: 48 to 52 °C.
Consider `O=C(Nc1nccs1)C(CC1CCCC1)c1ccc(-c2ccncc2)cc1` (centres unmarked) [Example 9, 3-Cyclopentyl-2-(4-pyridin-4-yl-phenyl)-N-thiazol-2-yl-propionamide], for which the melting point lay within 213 to 215 °C.
For the molecule `O=C(Nc1nccs1)C(CC1CCCC1)c1ccc(-c2ccc3[nH]ccc3c2)cc1` (centres unmarked) [Example 10, 3-Cyclopentyl-2-[4-(1H-indol-5-yl)-phenyl]-N-thiazol-2-yl-propionamide], the melting point fell in the range of 112 to 115 °C.
Molecule `O=C(Nc1nccs1)C(CC1CCCC1)c1ccc(OCc2ccccc2)cc1` (centres unmarked) [Example 11, 2-(4-Benzyloxy-phenyl)-3-cyclopentyl-N-thiazol-2-yl-propionamide] returned a melting point of 48 to 50 °C.
With `O=C(Nc1nccs1)C(CC1CCCC1)c1ccc(Oc2ccccc2)cc1` (centres unmarked) [Example 12, 3-Cyclopentyl-2-(4-phenoxy-phenyl)-N-thiazol-2-yl-propionamide] the figure was 154.9 to 155.1 °C; with `O=C(Nc1nc(CO)cs1)C(CC1CCCC1)c1ccc(Oc2ccccc2)cc1` (centres unmarked) [Example 13, 3-Cyclopentyl-N-(4-hydroxymethyl-thiazol-2-yl)-2-(4-phenoxy-phenyl)-propionamide], 83.7 to 87 °C; with `O=C(Nc1nccs1)C(CC1CCCC1)c1ccc(N2CCOCC2)cc1` (centres unmarked) [Example 18, 3-Cyclopentyl-2-(4-morpholin-4-yl-phenyl)-N-thiazol-2-yl-propionamide], 244 to 246 °C.
In the case of `O=C(Nc1nccs1)C(CC1CCCC1)c1ccc(S(=O)(=O)C2CCCC2)cc1` (centres unmarked) [Example 19, 2-(4-Cyclopentanesulfonyl-phenyl)-3-cyclopentyl-N-thiazol-2-yl-propionamide], the melting point is 180 to 182 °C.
Molecule `O=C(Nc1nccs1)C(CC1CCCC1)c1ccc(S(=O)(=O)c2ncc[nH]2)cc1` (centres unmarked) [Example 20, 3-Cyclopentyl-2-[4-(1H-imidazole-2-sulfonyl)-phenyl]-N-thiazol-2-yl-propionamide] showed a melting point of 249 to 251 °C.
The same measure for `O=C(Nc1ccccn1)C(CC1CCCC1)c1ccc(-c2ccccc2)cc1` (centres unmarked) [Example 21, 2-Biphenyl-4-yl-3-cyclopentyl-N-pyridin-2-yl-propionamide]: 57 to 59 °C; for `COC(=O)c1ccc(NC(=O)C(CC2CCCC2)c2ccc(-c3ccccc3)cc2)nc1` (centres unmarked) [Example 22, 6-(2-Biphenyl-4-yl-3-cyclopentyl-propionylamino)-nicotinic acid methyl ester]: 63 to 65 °C.
As to `O=C(O)c1ccc(NC(=O)C(CC2CCCC2)c2ccc(-c3ccccc3)cc2)nc1` (centres unmarked) [Example 23, 6-(2-Biphenyl-4-yl-3-cyclopentyl-propionylamino)-nicotinic acid], the melting point is 271 to 272 °C (dec.).
In turn, `O=C(Nc1ccc(CO)cn1)C(CC1CCCC1)c1ccc(-c2ccccc2)cc1` (centres unmarked) [Example 24, 2-Biphenyl-4-yl-3-cyclopentyl-N-(5-hydroxymethyl-pyridin-2-yl)-propionamide] yielded a melting point of 67 to 70 °C.
With `O=C(Nc1ccccn1)C(CC1CCCC1)c1ccc(-c2cccc3ccccc23)cc1` (centres unmarked) [Example 25, 3-Cyclopentyl-2-(4-naphthalen-1-yl-phenyl)-N-pyridin-2-yl-propionamide] the figure was 73 to 77 °C.
Regarding `O=C(O)c1ccc(NC(=O)C(CC2CCCC2)c2ccc(-c3cccc4ccccc34)cc2)nc1` (centres unmarked) [Example 26, 6-[3-Cyclopentyl-2-(4-naphthalen-1-yl-phenyl)-propionylamino]-nicotinic acid], the melting point lay within 155 to 158 °C.
`O=C(Nc1ccc(CO)cn1)C(CC1CCCC1)c1ccc(-c2cccc3ccccc23)cc1` (centres unmarked) [Example 27, 3-Cyclopentyl-N-(5-hydroxymethyl-pyridin-2-yl)-2-(4-naphthalen-1-yl-phenyl)-propionamide] returned a melting point of 72 to 75 °C.
For the molecule `O=C(Nc1ccccn1)C(CC1CCCC1)c1ccc(-c2cccnc2)cc1` (centres unmarked) [Example 28, 3-Cyclopentyl-N-pyridin-2-yl-2-(4-pyridin-3-yl-phenyl)-propionamide], the melting point was 139 to 140 °C.
Turning to `O=C(Nc1ccccn1)C(CC1CCCC1)c1ccc(-c2ccncc2)cc1` (centres unmarked) [Example 29, 3-Cyclopentyl-N-pyridin-2-yl-2-(4-pyridin-4-yl-phenyl)-propionamide], the melting point lay in the range of 165 to 167 °C.
`NC(=O)NC(=O)C(CC1CCCC1)c1ccc(-c2ccccc2)cc1` (centres unmarked) [Example 33, (2-Biphenyl-4-yl-3-cyclopentyl-propionyl) urea]: the melting point fell in the range of 184 to 185 °C.
In turn, `CNC(=O)NC(=O)C(CC1CCCC1)c1ccc(-c2ccccc2)cc1` (centres unmarked) [Example 34, 1-(2-Biphenyl-4-yl-3-cyclopentyl-propionyl)-3-methyl urea] came in with a melting point of 195 to 197 °C.
With `CNC(=O)NC(=O)C(CC1CCCC1)c1ccc(-c2cccc3ccccc23)cc1` (centres unmarked) [Example 35, 1-[3-Cyclopentyl-2-(4-naphthalen-1-yl-phenyl)-propionyl]-3-methyl urea], the melting point lay in the range of 85 to 88 °C.
`CNC(=O)NC(=O)C(CC1CCCC1)c1ccc(-c2cccnc2)cc1` (centres unmarked) [Example 36, 1-[3-Cyclopentyl-2-(4-pyridin-3-yl-phenyl)-propionyl]-3-methyl-urea] registered a melting point of 158 to 160 °C.
On to `CNC(=O)NC(=O)C(CC1CCCC1)c1ccc(-c2ccc3[nH]ccc3c2)cc1` (centres unmarked) [Example 37, 1-{3-Cyclopentyl-2-[4-(1H-indol-5-yl)-phenyl]-propionyl}-3-methyl-urea], for which the melting point is 91 to 95 °C.
Consider `CNC(=O)NC(=O)C(CC1CCCC1)c1ccc(N2CCOCC2)cc1` (centres unmarked) [Example 39, 1-[3-Cyclopentyl-2-(4-morpholin-4-yl-phenyl)-propionyl]-3-methyl-urea], for which the melting point was 206 to 207 °C.
With `CNC(=O)NC(=O)C(CC1CCCC1)c1ccc(S(=O)(=O)C2CCCCC2)cc1` (centres unmarked) [Example 40, 1-[2-(4-Cyclohexanesulfonyl-phenyl)-3-cyclopentyl-propionyl]-3-methyl-urea] the figure was 244 to 246 °C.
